Test results: US6833372B2, “Non-peptide GnRH agents, Pharmaceutical compositions, and methods for their use” (Pfizer, Inc., priority 2002, dated 2004)

Target: T1, rat GnRH receptor (Rattus norvegicus, UniProt P30969)
T1 construct: or rat pituitaries (Pel Freez Biologicals, Rogers, Ark.) were homogenized; tissue Pel Freez Biologicals; host or cells: rat pituitaries (membrane preparation)
T1 sequence (P30969 1-327): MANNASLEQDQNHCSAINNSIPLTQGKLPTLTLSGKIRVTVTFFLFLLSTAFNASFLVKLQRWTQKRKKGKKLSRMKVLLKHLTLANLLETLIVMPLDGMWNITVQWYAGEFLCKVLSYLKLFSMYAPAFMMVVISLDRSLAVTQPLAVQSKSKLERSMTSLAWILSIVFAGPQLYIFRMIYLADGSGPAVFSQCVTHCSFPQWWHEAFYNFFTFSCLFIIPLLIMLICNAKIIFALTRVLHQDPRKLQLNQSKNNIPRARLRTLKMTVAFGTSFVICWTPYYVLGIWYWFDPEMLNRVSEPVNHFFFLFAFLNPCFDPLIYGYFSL
Test: Radioligand binding: inhibition of 125I-GnRH-A binding to rat GnRH receptor (rat pituitary membranes)
Conditions: read-out: Ki (nM), Inhibition Binding of 125I-GnRH-A to GnRH Receptors
Description: (§1) HEK 293 cells containing mouse or human receptors, or rat pituitaries (Pel Freez Biologicals, Rogers, Ark.) were homogenized in buffer A containing: 50 mM Tris (pH 7.4), 0.32 M sucrose, 2 mM EGTA, 1 mM PMSF, 5 μg/ml aprotinen, 5 μg/ml Pepstatin A, and 1 μg/ml leupeptin. Homogenized cells were centrifuged at 4° C. at 20,000×g for 25 minutes, re-suspended in buffer A and re-centrifuged at 4° C. at 20,000×g for an additional 25 minutes. Total membrane protein was determined with a BCA kit (Pierce, Rockford, Ill.). Membranes were stored at −70° C. at a final membrane protein concentration of approximately 5 mg/ml.
(§2) The radioiodinated agonist analog of GnRH, [des-Gly^10,D-Ala^6]GnRH ethylamide (^125I-GnRH-A), was used as the radioligand. […] The reaction mixture was vortexed and incubated for 1 minute at room temperature. After one minute, the mixture was vortexed and allowed to incubate for an additional minute. 2 ml of 0.5 M acetic acid/1% BSA was added to the reaction tube and the mixture was added to a C18 Sep-Pak cartridge. The cartridge was washed with subsequent washes of 5 ml H2O and 5 ml 0.5 M acetic acid and then eluted with 5×1 ml of 60% CH3CN/40% 0.5 M acetic acid. The eluate was diluted with 3× volume of HPLC buffer A (0.1% TFA in H2O) and loaded onto a C18 column. The iodinated product was eluted over 20-25 min with a gradient of 25-100% CH3CN containing 0.1% TFA. The radioactive fractions (750 μl/fraction) were collected into clean polypropylene tubes containing 100 μl of 10% BSA. Fractions were assessed for biological activity by radioligand binding. Specific activity of the radioligand was approximately 2200 Ci/mmol.
(§3) Membranes were diluted to 0.01-0.5 mg/ml (depending upon the species of receptor) with assay buffer containing 50 mM HEPES (pH 7.4), 1 mM EDTA, 2.5 mM MgCl2, and 0.1% BSA. Membranes (diluted to utilize similar receptor numbers between assays) were incubated with approximately 0.04-0.06 nM ^125I-GnRH-A in the presence or absence of competing agents (0.1-10,000 nM) in a total volume of 200 μl in 96-well polypropylene plates for 1 hour at room temperature. Assays were stopped by rapid filtration onto 96-well GF/C filters soaked in 0.1% polyethylenimine (PEI) utilizing a Packard 96-well cell harvester. Filters were washed three times with ice-cold PBS (50 mM NaPO4, 0.9% NaCl, 2 mM MgCl2, and 0.02% NaN3, pH 7.4). 35 μl of scintillation cocktail was added to each filter well and filters were counted on a Packard Topcount. Control dose-response curves were generated to GnRH (0.1 nM-100 nM) in each competition binding experiment. Ki values were calculated from IC50 values according to Cheng et al., Biochemical Pharmacol. 22: 3099-3108, 1973. [formula]

Row | Ki [nM] | SMILES
1 | 9 | COc1nc(Oc2ccccc2)nc(OC)c1NC(=O)c1ccc(Cc2cc3c(cc2C)C(C)(C)OC3(C)C)o1 [Example A2, 5-(1,1,3,3,6-Pentamethyl-1,3-dihydro-isobenzofuran-5-ylmethyl)-furan-2-carboxylic acid (4,6-dimethoxy-2-phenoxy-pyrimidin-5-yl)-amide]
2 | 9.5 | COCCOc1nc(OC)c(NC(=O)c2ccc(Cc3cc4c(cc3C)C(C)(C)OC4(C)C)o2)c(OC)n1 [Example A4, 5-(1,1,3,3,6-Pentamethyl-1,3-dihydro-isobenzofuran-5-ylmethyl)-furan-2-carboxylic acid [4,6-dimethoxy-2-(2-methoxy-ethoxy)-pyrimidin-5-yl]-amide]
3 | 16 | COc1nc(NC2CCN(C)CC2)nc(OC)c1NC(=O)c1ccc(Cc2cc3c(cc2C)C(C)(C)OC3(C)C)o1 [Example D13, N-{4,6-Dimethoxy-2-[(1-methylpiperidin-4-yl)amino]pyrimidin-5-yl}-5-[(1,1,3,3,6-pentamethyl-1,3-dihydro-2-benzofuran-5-yl)methyl]-2-furamide]

Target: T2, human GnRH receptors (Homo sapiens, UniProt P30968)
T2 construct: expressed in transfected cells; host or cells: HEK 293 cells, stably transfected; membranes
T2 sequence (P30968 1-328): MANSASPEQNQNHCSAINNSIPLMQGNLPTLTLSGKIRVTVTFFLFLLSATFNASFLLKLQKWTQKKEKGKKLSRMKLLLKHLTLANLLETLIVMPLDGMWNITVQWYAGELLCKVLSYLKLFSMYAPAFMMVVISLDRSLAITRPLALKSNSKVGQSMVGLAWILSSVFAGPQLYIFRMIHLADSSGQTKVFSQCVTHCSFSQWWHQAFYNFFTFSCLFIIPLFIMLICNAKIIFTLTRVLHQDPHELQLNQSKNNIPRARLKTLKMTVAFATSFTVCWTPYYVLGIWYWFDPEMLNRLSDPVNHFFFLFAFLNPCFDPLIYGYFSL
Test: Radioligand binding: inhibition of 125I-GnRH-A binding to human GnRH receptor membranes
Conditions: HEK 293 cell membranes
Description: HEK 293 cells stably transfected with mouse or human GnRH receptors as described above were grown in Dulbecco's high-glucose, modified Eagle's medium (DMEM) supplemented with 0.2% G418, 10% fetal bovine serum (FBS) and 100 U/mL penicillin/streptomycin. GH3 cells stably transfected with the rat GnRH receptor (GGH3) were provided by Dr. William Chin (Harvard Medical School, Boston, Mass.). These cells have been extensively characterized previously (Kaiser et al., 1997). The cells were grown in low glucose DMEM containing: 100U/mL penicillin/streptomycin, 0.6% G418 and 10% heat-inactivated FBS.
as §1, §2, §3

Row | SMILES | Ki [nM]
4 | COc1nc(Oc2ccccc2)nc(OC)c1NC(=O)c1ccc(Cc2cc3c(cc2C)C(C)(C)OC3(C)C)o1 [Example A2, 5-(1,1,3,3,6-Pentamethyl-1,3-dihydro-isobenzofuran-5-ylmethyl)-furan-2-carboxylic acid (4,6-dimethoxy-2-phenoxy-pyrimidin-5-yl)-amide] | 7.6
5 | COCCOc1nc(OC)c(NC(=O)c2ccc(Cc3cc4c(cc3C)C(C)(C)OC4(C)C)o2)c(OC)n1 [Example A4, 5-(1,1,3,3,6-Pentamethyl-1,3-dihydro-isobenzofuran-5-ylmethyl)-furan-2-carboxylic acid [4,6-dimethoxy-2-(2-methoxy-ethoxy)-pyrimidin-5-yl]-amide] | 18
6 | COc1nc(NC2CCN(C)CC2)nc(OC)c1NC(=O)c1ccc(Cc2cc3c(cc2C)C(C)(C)OC3(C)C)o1 [Example D13, N-{4,6-Dimethoxy-2-[(1-methylpiperidin-4-yl)amino]pyrimidin-5-yl}-5-[(1,1,3,3,6-pentamethyl-1,3-dihydro-2-benzofuran-5-yl)methyl]-2-furamide] | 38
7 | CCOC(=O)CN(Cc1ccccc1)c1nc(OC)c(NC(=O)c2ccc(Cc3cc4c(cc3C)C(C)(C)OC4(C)C)o2)c(OC)n1 [Example D51, Ethyl N-benzyl-N-[4,6-dimethoxy-5-({5-[(1,1,3,3,6-pentamethyl-1,3-dihydro-2-benzofuran-5-yl)methyl]-2-furoyl}amino)pyrimidin-2-yl]glycinate] | 202
8 | COc1ccccc1C1CCN(c2nc(OC)c(NC(=O)c3ccc(Cc4cc5c(cc4C)C(C)(C)OC5(C)C)o3)c(OC)n2)CC1 [Example D52, N-{4,6-Dimethoxy-2-[4-(2-methoxyphenyl)piperidin-1-yl]pyrimidin-5-yl}-5-[(1,1,3,3,6-pentamethyl-1,3-dihydro-2-benzofuran-5-yl)methyl]-2-furamide] | 260
9 | COc1nc(N2CCN(Cc3ccncc3)CC2)nc(OC)c1NC(=O)c1ccc(Cc2cc3c(cc2C)C(C)(C)OC3(C)C)o1 [Example D54, N-{4,6-Dimethoxy-2-[4-(pyridin-4-ylmethyl)piperazin-1-yl]pyrimidin-5-yl}-5-[(1,1,3,3,6-pentamethyl-1,3-dihydro-2-benzofuran-5-yl)methyl]-2-furamide] | 150
10 | COc1nc(NCc2ccc(-c3ccccc3)cc2)nc(OC)c1NC(=O)c1ccc(Cc2cc3c(cc2C)C(C)(C)OC3(C)C)o1 [Example D55, N-{2-[(1,1′-Biphenyl-4-ylmethyl)amino]-4,6-dimethoxypyrimidin-5-yl}-5-[(1,1,3,3,6-pentamethyl-1,3-dihydro-2-benzofuran-5-yl)methyl]-2-furamide] | 160
11 | COc1nc(N2CCN(c3cc(C(F)(F)F)nc4ccccc34)CC2)nc(OC)c1NC(=O)c1ccc(Cc2cc3c(cc2C)C(C)(C)OC3(C)C)o1 [Example D61, N-(4,6-dimethoxy-2-{4-[2-(trinfluoromethyl)quinolin-4-yl]piperazin-1-yl}pyrimidin-5-yl)-5-[(1,1,3,3,6-pentamethyl-1,3-dihydro-2-benzofuran-5-yl)methyl]-2-furamide] | 500
12 | COc1nc(N2CCN(c3ccc(Cl)cc3)CC2)nc(OC)c1NC(=O)c1ccc(Cc2cc3c(cc2C)C(C)(C)OC3(C)C)o1 [Example D62, N-{2-[4-(4-Chlorophenyl)piperazin-1-yl]-4,6-dimethoxypyrimidin-5-yl}-5-[(1,1,3,3,6-pentamethyl-1,3-dihydro-2-benzofuran-5-yl)methyl]-2-furamide] | 120
13 | COc1nc(NCCCN2CCN(C)CC2)nc(OC)c1NC(=O)c1ccc(Cc2cc3c(cc2C)C(C)(C)OC3(C)C)o1 [Example D63, N-(4,6-Dimethoxy-2-{[3-(4-methylpiperazin-1-yl)propyl]amino}pyrimidin-5-yl)-5-[(1,1,3,3,6-pentamethyl-1,3-dihydro-2-benzofuran-5-yl)methyl]-2-furamide] | 1.8

Next, values leading:

Row | Ki [nM] | SMILES
14 | 21 | COc1nc(N[C@H](CO)Cc2c[nH]c3ccccc23)nc(OC)c1NC(=O)c1ccc(Cc2cc3c(cc2C)C(C)(C)OC3(C)C)o1 [Example D64, N-(2-{[(1S)-2-Hydroxy-1-(1H-indol-3-ylmethyl)ethyl]amino}-4,6-dimethoxypyrimidin-5-yl)-5-[(1,1,3,3,6-pentamethyl-1,3-dihydro-2-benzofuran-5-yl)methyl]-2-furamide]
15 | 6.7 | COc1nc(NCCc2ccccn2)nc(OC)c1NC(=O)c1ccc(Cc2cc3c(cc2C)C(C)(C)OC3(C)C)o1 [Example D65, N-{4,6-Dimethoxy-2-[(2-pyridin-2-ylethyl)amino]pyrimidin-5-yl}-5-[(1,1,3,3,6-pentamethyl-1,3-dihydro-2-benzofuran-5-yl)methyl]-2-furamide]
16 | 5.1 | COc1nc(NCCc2ccncc2)nc(OC)c1NC(=O)c1ccc(Cc2cc3c(cc2C)C(C)(C)OC3(C)C)o1 [Example D66, N-{4,6-Dimethoxy-2-[(2-pyridin-4-ylethyl)amino]pyrimidin-5-yl}-5-[(1,1,3,3,6-pentamethyl-1,3-dihydro-2-benzofuran-5-yl)methyl]-2-furamide]
17 | 50 | COc1nc(NCCCN2CCOCC2)nc(OC)c1NC(=O)c1ccc(Cc2c(C)cc3c(c2C)C(C)(C)CO3)o1 [Example H1, N-{4,6-Dimethoxy-2-[(3-morpholin-4-ylpropyl)amino]-pyrimidin-5-yl}-5-[(3,3,4,6-tetramethyl-2,3-dihydro-1-benzofuran-5-yl)methyl]-2-furamide]
18 | 47 | COc1nc(NCCCN2CCN(C)CC2)nc(OC)c1NC(=O)c1ccc(Cc2c(C)cc3c(c2C)C(C)(C)CO3)o1 [Example H2, N-(4,6-Dimethoxy-2-{[3-(4-methylpiperazin-1-yl)propyl]amino}pyrimidin-5-yl)-5-[(3,3,4,6-tetramethyl-2,3-dihydro-1-benzofuran-5-yl)methyl]-2-furamide]
19 | 46 | COc1nc(NCCCN(C)C)nc(OC)c1NC(=O)c1ccc(Cc2c(C)cc3c(c2C)C(C)(C)CO3)o1 [Example H3, N-(2-{[3-(Dimethylamino)propyl]amino}-4,6-dimethoxypyrimidin-5-yl)-5-[(3,3,4,6-tetramethyl-2,3-dihydro-1-benzofuran-5-yl)methyl]-2-furamide]
20 | 0.2 | COc1nc(NCCCN(C)C)nc(OC)c1NC(=O)c1ccc(Cc2cc3c(cc2C)C(C)(C)CC3(C)C)o1 [Example J1, N-(2-{[3-(dimethylamino)propyl]amino}-4,6-dimethoxypyrimidin-5-yl)-5-[(1,1,3,3,6-pentamethyl-2,3-dihydro-1H-inden-5-yl)methyl]-2-furamide]
